Source: ChEMBL document CHEMBL3102837, “Synthesis of novel indenoquinoxaline derivatives as potent α-glucosidase inhibitors” (Bioorg Med Chem, 2014)
Active and inactive are the calls of the source. The calls are words filed in the database; no cut-off is given here.

Legend:
[1] = biological target: T1, Tyrosinase (Homo sapiens) (UniProt P14679); assay: Inhibition of tyrosinase (unknown origin)
T1 sequence (whole entry): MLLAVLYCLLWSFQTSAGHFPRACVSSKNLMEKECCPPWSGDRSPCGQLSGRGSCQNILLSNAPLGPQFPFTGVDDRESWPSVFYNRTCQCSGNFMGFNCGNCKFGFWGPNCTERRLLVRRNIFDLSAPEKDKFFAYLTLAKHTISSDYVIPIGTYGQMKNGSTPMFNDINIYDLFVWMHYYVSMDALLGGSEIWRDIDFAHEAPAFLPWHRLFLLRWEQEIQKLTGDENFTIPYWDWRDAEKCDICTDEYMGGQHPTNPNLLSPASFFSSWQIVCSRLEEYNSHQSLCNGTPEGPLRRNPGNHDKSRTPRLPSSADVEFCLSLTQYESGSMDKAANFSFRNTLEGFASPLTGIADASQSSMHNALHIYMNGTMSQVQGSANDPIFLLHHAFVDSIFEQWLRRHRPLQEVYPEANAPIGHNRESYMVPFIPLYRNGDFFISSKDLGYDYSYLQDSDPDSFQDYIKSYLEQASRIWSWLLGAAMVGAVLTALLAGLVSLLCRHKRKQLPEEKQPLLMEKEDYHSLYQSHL

Alpha-glucosidase MAL12 = Alpha-glucosidase MAL12 (Saccharomyces cerevisiae S288c, UniProt P53341); assay: Inhibition of Saccharomyces cerevisiae alpha-glucosidase using p-nitrophenyl-alpha-D-glucopyranoside as substrate preincubated for 10 mins measured after 30 mins
Sequence of Alpha-glucosidase MAL12 (P53341 whole entry): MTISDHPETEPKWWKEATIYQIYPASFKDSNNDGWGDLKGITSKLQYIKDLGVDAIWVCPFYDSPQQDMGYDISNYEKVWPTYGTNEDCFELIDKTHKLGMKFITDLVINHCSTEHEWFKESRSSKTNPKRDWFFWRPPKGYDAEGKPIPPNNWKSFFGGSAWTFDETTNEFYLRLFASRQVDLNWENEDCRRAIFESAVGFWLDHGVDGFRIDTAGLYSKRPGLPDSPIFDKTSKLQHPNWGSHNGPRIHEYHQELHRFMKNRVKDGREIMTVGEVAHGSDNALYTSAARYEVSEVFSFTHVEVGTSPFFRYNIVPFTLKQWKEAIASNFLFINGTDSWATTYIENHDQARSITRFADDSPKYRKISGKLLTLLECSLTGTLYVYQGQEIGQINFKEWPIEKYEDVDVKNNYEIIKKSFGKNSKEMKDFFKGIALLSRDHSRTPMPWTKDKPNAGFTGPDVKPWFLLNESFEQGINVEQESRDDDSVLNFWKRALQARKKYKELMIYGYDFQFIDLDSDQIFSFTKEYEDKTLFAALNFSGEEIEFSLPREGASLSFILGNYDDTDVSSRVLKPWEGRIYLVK

Homo sapiens = organism: Homo sapiens; assay: Inhibition of alpha-chymotrypsin (unknown origin)

O=C(N/N=C1/c2ccccc2-c2nc3ccccc3nc21)c1cccc(F)c1
inhibition [1]: inactive | IC50 (Alpha-glucosidase MAL12; read-out: IC50): 90.9 µM | inhibition (Homo sapiens): Active

O=C(N/N=C1/c2ccccc2-c2nc3ccccc3nc21)c1ccc(Cl)cc1
inhibition [1]: inactive | IC50 (Alpha-glucosidase MAL12; read-out: IC50): 99.9 µM | inhibition (Homo sapiens): Active

O=C(N/N=C1/c2ccccc2-c2nc3ccccc3nc21)c1ccccc1
inhibition [1]: inactive | IC50 (Alpha-glucosidase MAL12): Not Active | inhibition (Homo sapiens): Active

O=C(N/N=C1/c2ccccc2-c2nc3ccccc3nc21)c1ccccc1[N+](=O)[O-]
inhibition [1]: inactive | IC50 (Alpha-glucosidase MAL12; read-out: IC50): 23.5 µM | inhibition (Homo sapiens): Active

c1ccc2c(c1)/C(=N/N=C1\c3ccccc3-c3nc4ccccc4nc31)c1nc3ccccc3nc1-2
inhibition [1]: inactive | IC50 (Alpha-glucosidase MAL12; read-out: IC50): 18.2 µM | inhibition (Homo sapiens): Active

O=C(N/N=C1/c2ccccc2-c2nc3ccccc3nc21)c1ccc(Br)cc1
inhibition [1]: inactive | IC50 (Alpha-glucosidase MAL12; read-out: IC50): 22.7 µM | inhibition (Homo sapiens): Active

O=C(N/N=C1/c2ccccc2-c2nc3ccccc3nc21)c1cccc(I)c1
inhibition [1]: inactive | IC50 (Alpha-glucosidase MAL12; read-out: IC50): 77.5 µM | inhibition (Homo sapiens): Active

Cc1ccc(C(=O)N/N=C2/c3ccccc3-c3nc4ccccc4nc32)cc1
inhibition [1]: inactive | IC50 (Alpha-glucosidase MAL12; read-out: IC50): > 500 µM | inhibition (Homo sapiens): Active

O=C(N/N=C1/c2ccccc2-c2nc3ccccc3nc21)c1ccc(O)cc1
inhibition [1]: inactive | IC50 (Alpha-glucosidase MAL12; read-out: IC50): 102 µM | inhibition (Homo sapiens): Active

O=C(N/N=C1/c2ccccc2-c2nc3ccccc3nc21)c1ccc([N+](=O)[O-])cc1
inhibition [1]: inactive | IC50 (Alpha-glucosidase MAL12; read-out: IC50): 29.5 µM | inhibition (Homo sapiens): Active

O=C(N/N=C1/c2ccccc2-c2nc3ccccc3nc21)c1cccc(Cl)c1
inhibition [1]: inactive | IC50 (Alpha-glucosidase MAL12; read-out: IC50): 105 µM | inhibition (Homo sapiens): Active

O=C(N/N=C1/c2ccccc2-c2nc3ccccc3nc21)c1ccc(F)cc1
inhibition [1]: inactive | IC50 (Alpha-glucosidase MAL12; read-out: IC50): 53.4 µM | inhibition (Homo sapiens): Active

O=C(N/N=C1/c2ccccc2-c2nc3ccccc3nc21)c1cccc(Br)c1
inhibition [1]: inactive | IC50 (Alpha-glucosidase MAL12; read-out: IC50): 113 µM | inhibition (Homo sapiens): Active

O=C(N/N=C1/c2ccccc2-c2nc3ccccc3nc21)c1ccccc1Cl
inhibition [1]: inactive | IC50 (Alpha-glucosidase MAL12; read-out: IC50): 25.9 µM | inhibition (Homo sapiens): Active

Nc1ccccc1C(=O)N/N=C1/c2ccccc2-c2nc3ccccc3nc21
inhibition [1]: inactive | IC50 (Alpha-glucosidase MAL12; read-out: IC50): 62.3 µM | inhibition (Homo sapiens): Active

O=C(N/N=C1/c2ccccc2-c2nc3ccccc3nc21)c1ccccc1Br
inhibition [1]: inactive | IC50 (Alpha-glucosidase MAL12; read-out: IC50): 23.1 µM | inhibition (Homo sapiens): Active

O=C1c2ccccc2-c2nc3ccccc3nc21
IC50 (Alpha-glucosidase MAL12; read-out: IC50): 62.5 µM

COc1ccc(C(=O)N/N=C2/c3ccccc3-c3nc4ccccc4nc32)cc1O
inhibition [1]: inactive | IC50 (Alpha-glucosidase MAL12): Not Active | inhibition (Homo sapiens): Active

O=C(N/N=C1/c2ccccc2-c2nc3ccccc3nc21)c1ccc(I)cc1
inhibition [1]: inactive | IC50 (Alpha-glucosidase MAL12; read-out: IC50): 37.7 µM | inhibition (Homo sapiens): Active
